Assay results reported in ChEMBL document CHEMBL5058564, “EUbOPEN Chemogenomics Library 2 (Incucyte)” (2022).

Assays:
Assay type in all cases: toxicity, cell-based
HEK-293T = assay: Incucyte cell viability with HEK293T; conditions: human, 10 µM, compound concentration 10 uM
U2OS = assay: Incucyte cell viability with U2OS; conditions: human, 10 µM, compound concentration 10 uM
Fibroblast = assay: Incucyte cell viability with human fibroblast; conditions: 10 µM, compound concentration 10 uM
[1] = 0 h, replicate number 1, timepoint 0 hours
[2] = 0 h, replicate number 2, timepoint 0 hours
[3] = 6 h, replicate number 1, timepoint 6 hours
[4] = 12 h, replicate number 1, timepoint 12 hours
[5] = 12 h, replicate number 2, timepoint 12 hours
[6] = 18 h, replicate number 1, timepoint 18 hours
[7] = 18 h, replicate number 2, timepoint 18 hours
[8] = 24 h, replicate number 1, timepoint 24 hours
[9] = 24 h, replicate number 2, timepoint 24 hours
[10] = 6 h, replicate number 2, timepoint 6 hours
Also: unitless GR value; below 1 slowed growth and below 0 cell loss.

SMILES | Growth Rate (HEK-293T; [2]) | Growth Rate (HEK-293T; [3]) | Growth Rate (HEK-293T; [4]) | Growth Rate (HEK-293T; [5]) | Growth Rate (HEK-293T; [6]) | Growth Rate (HEK-293T; [7]) | Growth Rate (HEK-293T; [8]) | Growth Rate (U2OS; [1]) | Growth Rate (U2OS; [2]) | Growth Rate (U2OS; [10]) | Growth Rate (U2OS; [4]) | Growth Rate (U2OS; [5]) | Growth Rate (U2OS; [6]) | Growth Rate (U2OS; [7]) | Growth Rate (U2OS; [8]) | Growth Rate (Fibroblast; [2]) | Growth Rate (Fibroblast; [3]) | Growth Rate (Fibroblast; [8]) | Growth Rate (Fibroblast; [4]) | Growth Rate (Fibroblast; [6]) | other results
CCCCCCCC/C=C\CCCCCCCC(N)=O [OLEAMIDE] | 0.35 | 0.79 | 0.8 | 0.99 | 0.89 | 0.94 | 0.96 | 0.24 | 0.51 | 1 | 0.75 | 0.79 | 0.76 | 0.89 | 0.98 | 0.02 |  |  |  |  | Growth Rate (HEK-293T; [1]): 0.61; Growth Rate (HEK-293T; [9]): 1; Growth Rate (U2OS; [3]): 0.78; Growth Rate (Fibroblast; [1]): 0.63; Growth Rate (Fibroblast; [10]): 0.82
COc1ccc2c(c1OCc1ccccc1)C[C@@H](C(=O)O)N(C(=O)C(c1ccccc1)c1ccccc1)C2 [OLODANRIGAN] |  | 0.62 | 0.74 |  | 0.8 |  | 0.86 |  | -1 |  |  | 0.89 |  | 0.98 |  | 0.27 | 0.24 | 0.83 |  |  | Growth Rate (HEK-293T; [10]): 0.64; Growth Rate (Fibroblast; [1]): 0.93
CCNC1(C(N)=O)CCN(c2ncnc3c2nc(-c2ccccc2Cl)n3-c2ccc(Cl)cc2)CC1 [OTENABANT] |  |  |  | 0.81 |  |  |  | -0.85 |  | 0.79 |  | 0.93 |  | 0.92 |  | 0.22 |  | -0.07 | -0.34 | 0.38 | Growth Rate (U2OS; [9]): 0.93; Growth Rate (Fibroblast; [1]): -0.61; Growth Rate (Fibroblast; [10]): 0.96; Growth Rate (Fibroblast; [5]): 1
CC(C)Oc1ccc(-c2nc(-c3cccc4c3CC[C@@H]4NCCO)no2)cc1C#N [OZANIMOD] |  | -0.7 | -0.42 | -0.34 | -0.32 | -0.35 | -0.25 |  |  | -0.16 | 0.37 | -0.05 | 0.41 | 0.01 | 0.38 |  | 0.57 | -0.09 | 0.12 | 0.03 | Growth Rate (HEK-293T; [10]): -0.68; Growth Rate (HEK-293T; [9]): -0.29; Growth Rate (U2OS; [9]): 0.04; Growth Rate (Fibroblast; [10]): 0.42; Growth Rate (Fibroblast; [5]): -0.28; Growth Rate (Fibroblast; [7]): -0.49; Growth Rate (Fibroblast; [9]): -0.43
CC(=O)O[C@H]1C(=O)[C@@]2(C)[C@H]([C@H](OC(=O)c3ccccc3)[C@]3(O)C[C@H](OC(=O)[C@H](O)[C@@H](NC(=O)c4ccccc4)c4ccccc4)C(C)=C1C3(C)C)[C@]1(OC(C)=O)CO[C@@H]1C[C@@H]2O [PACLITAXEL] |  | -0.58 | -0.24 | -0.18 | -0.17 | -0.18 | -0.03 | -0.24 | 0.29 | -0.14 | 0.12 | -0.2 | 0.09 | -0.14 | 0.07 |  | -0.93 | -0.4 | -0.65 | -0.57 | Growth Rate (HEK-293T; [10]): -0.59; Growth Rate (HEK-293T; [9]): -0.1; Growth Rate (U2OS; [3]): 0.37; Growth Rate (U2OS; [9]): -0.09; Growth Rate (Fibroblast; [10]): -0.73; Growth Rate (Fibroblast; [5]): -0.32; Growth Rate (Fibroblast; [7]): 0.02; Growth Rate (Fibroblast; [9]): 0.16
Cc1cc(NC(=O)NCCN2CCC(O)(Cc3ccccc3)CC2)c2ccccc2n1 [PALOSURAN] | -1 | 0.95 | 0.83 |  |  |  |  | 0.34 | 0.13 | 0.73 | 0.33 |  | 0.73 | 0.98 | 0.87 | 0.27 | -0.3 | 0.22 | 0.72 | 0.32 | Growth Rate (HEK-293T; [1]): 0.55; Growth Rate (U2OS; [3]): 0.57
O=C(O)c1cc2ccccc2c(Cc2c(O)c(C(=O)O)cc3ccccc23)c1O [PAMOIC ACID] | 0.89 |  |  |  |  |  |  |  |  | 0.75 |  |  |  |  |  | 0.41 |  |  | 0.52 | 0.93 | Growth Rate (HEK-293T; [1]): 0.69; Growth Rate (Fibroblast; [1]): -0.13
OCCN1CCN(CCCN2c3ccccc3Sc3ccc(Cl)cc32)CC1 [PERPHENAZINE] |  | 0.12 | 0.59 | 0.45 | 0.76 | 0.67 | 0.41 |  |  | 0.28 | 0.85 | 0.55 |  | 0.64 | 1 |  | -0.61 | -0.08 | -0.48 | -0.34 | Growth Rate (HEK-293T; [10]): 0.25; Growth Rate (HEK-293T; [9]): 0.76; Growth Rate (U2OS; [9]): 0.69; Growth Rate (Fibroblast; [10]): 0.55; Growth Rate (Fibroblast; [5]): 0.42; Growth Rate (Fibroblast; [7]): 0.44; Growth Rate (Fibroblast; [9]): 0.53
CC[C@@H](C)Nc1nc(C)nc2c(-c3ccc(OC)nc3C)c(C)nn12 [PEXACERFONT] | 0.62 |  |  | 0.9 | 0.93 |  | 0.84 |  | -1 |  | 0.45 |  | 0.67 |  |  | 0.28 | -0.25 | -0.13 | -0.18 | -0.19 | Growth Rate (HEK-293T; [1]): 0.85; Growth Rate (U2OS; [3]): 1; Growth Rate (Fibroblast; [10]): -0.51; Growth Rate (Fibroblast; [5]): 0.49; Growth Rate (Fibroblast; [7]): 0.94; Growth Rate (Fibroblast; [9]): 1
CC(=O)NCC(=O)N1[C@@H]2CC[C@H]1c1ccc(Nc3ncc(C(F)(F)F)c(NC4CCC4)n3)cc12 [PF-03814735] |  | -0.73 | -0.54 | -0.65 | -0.45 | -0.48 | -0.31 | -0.24 |  |  | 0.23 | 0.56 | 0.36 | 0.22 | 0.28 | -0.37 |  | 0.26 | 0.58 | 0.72 | Growth Rate (HEK-293T; [10]): -0.88; Growth Rate (HEK-293T; [9]): -0.41; Growth Rate (U2OS; [9]): 0.12; Growth Rate (Fibroblast; [1]): -0.04; Growth Rate (Fibroblast; [7]): 0.79; Growth Rate (Fibroblast; [9]): 0.62
O=C(NCC(=O)N1CC[C@H](N[C@H]2CC[C@@](O)(c3ccc(-c4ncccn4)cn3)CC2)C1)c1cccc(C(F)(F)F)c1 [PF-4136309] | 0.66 | 1 | 0.73 |  |  |  | 0.99 | 0.62 |  | 0.3 |  | 0.53 | 1 | 0.8 | 0.7 | 0.71 | 0.01 | 0.41 | 0.15 | 0.3 | Growth Rate (HEK-293T; [10]): 0.86; Growth Rate (U2OS; [9]): 0.9
Cc1cc(-c2ccc3c(c2)CC[C@H]3N2CC3(CCN(C(=O)Cc4cn5cc(C)sc5n4)CC3)C2)ncn1 [PF-5190457] | 0.77 |  |  |  | 0.98 |  |  |  | -0.98 |  |  | 0.99 | 0.94 |  |  | 0.62 | -0.34 | 0.57 | 0.22 | 0.37 | Growth Rate (Fibroblast; [5]): 0.88
CC(COc1ccccc1)N(CCCl)Cc1ccccc1.Cl (stereo unspecified) [PHENOXYBENZAMINE HYDROCHLORIDE] | 0.07 | 0.03 | 0.28 |  | 0.49 | 1 | 0.56 |  | 0.42 |  |  |  | 0.94 |  |  |  | 0.45 | 0.51 | 0.55 | 0.49 | 
